# Measurements published in ChEMBL document CHEMBL4396875, “Hybridization of β-Adrenergic Agonists and Antagonists Confers G Protein Bias” (J Med Chem, 2019).
# Tests used:
# Format in all cases: cell-based
# [1] = molecular target: T1, Beta-2 adrenergic receptor (Homo sapiens, UniProt P07550); assay: Displacement of [3H]-CGP-12177 from human beta2-adrenergic receptor expressed in CHO cells after 60 mins by radioligand competition binding assay
# [2] = molecular target: Beta-1 adrenergic receptor (Mus musculus, UniProt P34971); assay: Displacement of [3H]-CGP-12177 from murine beta1-adrenergic receptor expressed in HEK293T cells after 60 mins by radioligand competition binding assay
# Sequence of Beta-1 adrenergic receptor (Mus musculus, UniProt P34971) (P34971 whole entry): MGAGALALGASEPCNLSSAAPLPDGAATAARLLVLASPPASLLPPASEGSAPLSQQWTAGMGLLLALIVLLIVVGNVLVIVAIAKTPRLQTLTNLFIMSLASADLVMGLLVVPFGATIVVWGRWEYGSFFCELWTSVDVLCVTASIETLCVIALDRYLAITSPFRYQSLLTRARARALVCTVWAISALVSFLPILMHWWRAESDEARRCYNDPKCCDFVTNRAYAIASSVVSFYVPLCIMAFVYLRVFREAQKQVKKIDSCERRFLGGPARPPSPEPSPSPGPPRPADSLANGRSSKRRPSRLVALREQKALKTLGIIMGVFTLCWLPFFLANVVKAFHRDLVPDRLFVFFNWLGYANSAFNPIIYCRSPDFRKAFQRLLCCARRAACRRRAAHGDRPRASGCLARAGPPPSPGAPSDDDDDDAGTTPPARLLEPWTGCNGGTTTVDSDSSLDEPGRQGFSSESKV
# [3] = molecular target: T2, Beta-1 adrenergic receptor (Homo sapiens, UniProt P08588); assay: Agonist activity at beta1-adrenergic receptor (unknown origin) expressed in HEK293T cells harboring Rluc2-117-GalphaS/GFP10-Ggamma/Gbeta1 assessed as activation of GalphaS incubated for 5 mins in presence of coelenterazine 400a by BRET assay
# T2 sequence (P08588 whole entry): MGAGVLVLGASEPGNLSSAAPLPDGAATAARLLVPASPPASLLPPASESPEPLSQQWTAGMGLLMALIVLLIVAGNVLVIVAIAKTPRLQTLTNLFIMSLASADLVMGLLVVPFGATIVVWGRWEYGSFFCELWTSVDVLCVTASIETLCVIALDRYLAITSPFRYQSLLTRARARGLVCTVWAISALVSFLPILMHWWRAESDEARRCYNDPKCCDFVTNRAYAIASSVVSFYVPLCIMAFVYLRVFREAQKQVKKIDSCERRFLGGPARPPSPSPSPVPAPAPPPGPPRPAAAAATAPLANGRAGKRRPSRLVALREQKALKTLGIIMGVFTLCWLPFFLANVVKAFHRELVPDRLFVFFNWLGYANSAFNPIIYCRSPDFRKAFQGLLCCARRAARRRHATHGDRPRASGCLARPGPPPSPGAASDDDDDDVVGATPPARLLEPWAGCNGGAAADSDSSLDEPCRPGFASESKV
# [4] = molecular target: T2, Beta-1 adrenergic receptor; assay: Agonist activity at beta1-adrenergic receptor (unknown origin) expressed in HEK293T cells harboring GFP/Rluc2-tagged beta-arrestin2 assessed as increase in beta-arrestin2 recruitment incubated for 5 mins in presence of coelenterazine 400a by BRET assay
# [5] = molecular target: T1, Beta-2 adrenergic receptor; assay: Agonist activity at beta2-adrenergic receptor (unknown origin) expressed in HEK293T cells harboring GFP/Rluc2-tagged beta-arrestin2 assessed as increase in beta-arrestin2 recruitment incubated for 5 mins in presence of GSK5 and coelenterazine 400a by BRET assay
# [6] = molecular target: T2, Beta-1 adrenergic receptor; assay: Agonist activity at beta1-adrenergic receptor (unknown origin) expressed in HEK293T cells harboring GFP/Rluc2-tagged beta-arrestin2 assessed as increase in beta-arrestin2 recruitment incubated for 5 mins in presence of GRK2 and coelenterazine 400a by BRET assay
# [7] = molecular target: T2, Beta-1 adrenergic receptor; assay: Agonist activity at beta1-adrenergic receptor (unknown origin) expressed in HEK293T cells harboring GFP/Rluc2-tagged beta-arrestin2 assessed as increase in beta-arrestin2 recruitment incubated for 5 mins in presence of GRK5 and coelenterazine 400a by BRET assay
# [8] = molecular target: T1, Beta-2 adrenergic receptor; assay: Agonist activity at beta2-adrenergic receptor (unknown origin) expressed in HEK293T cells harboring Rluc2-117-GalphaS/GFP10-Ggamma/Gbeta1 assessed as activation of GalphaS incubated for 5 mins in presence of coelenterazine 400a by BRET assay
# [9] = molecular target: T1, Beta-2 adrenergic receptor; assay: Agonist activity at beta2-adrenergic receptor (unknown origin) expressed in HEK293T cells harboring GFP/Rluc2-tagged beta-arrestin2 assessed as increase in beta-arrestin2 recruitment incubated for 5 mins in presence of GSK2 and coelenterazine 400a by BRET assay
# [10] = molecular target: T1, Beta-2 adrenergic receptor; assay: Agonist activity at beta2-adrenergic receptor (unknown origin) expressed in HEK293T cells harboring GFP/Rluc2-tagged beta-arrestin2 assessed as increase in beta-arrestin2 recruitment incubated for 5 mins in presence of coelenterazine 400a by BRET assay
# T1 sequence (P07550 whole entry): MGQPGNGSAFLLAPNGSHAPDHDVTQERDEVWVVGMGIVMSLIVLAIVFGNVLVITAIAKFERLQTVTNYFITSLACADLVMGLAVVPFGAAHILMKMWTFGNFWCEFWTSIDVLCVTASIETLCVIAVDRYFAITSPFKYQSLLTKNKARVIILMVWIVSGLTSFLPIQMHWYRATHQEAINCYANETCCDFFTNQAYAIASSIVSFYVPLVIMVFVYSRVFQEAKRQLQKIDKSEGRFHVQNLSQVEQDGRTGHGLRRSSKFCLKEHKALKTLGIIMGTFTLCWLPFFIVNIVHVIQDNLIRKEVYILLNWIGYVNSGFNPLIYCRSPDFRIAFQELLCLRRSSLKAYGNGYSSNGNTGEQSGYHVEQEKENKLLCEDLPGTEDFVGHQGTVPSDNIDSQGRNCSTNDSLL
smiles,measurement,setting,value
CC(C)NCCCOc1ccc(O)c(O)c1,Ki,[1],6.9 µM
same,Ki,[2],> 10 µM
COc1ccccc1OCCNC[C@H](O)c1cccc2[nH]c3ccccc3c12,Ki,[1],0.0033 µM
same,Ki,[2],0.0066 µM
COc1cc(CCNCCCOc2ccc(O)c(O)c2)ccc1OCCCc1ccccc1,Ki,[1],0.7 µM
same,Ki,[2],1.2 µM
COc1ccccc1OCCNCCc1cccc2[nH]c3ccccc3c12,Ki,[1],0.026 µM
same,Ki,[2],0.33 µM
COc1ccccc1OCCNC[C@@H](O)Cc1ccc(O)c(O)c1,Ki,[1],0.74 µM
same,Ki,[2],2.4 µM
COc1ccccc1OCCNCCCc1ccc(O)c(O)c1,Ki,[1],0.92 µM
same,Ki,[2],> 10 µM
COc1ccccc1OCCNC[C@H](O)COc1ccc(O)c(O)c1,EC50,[3]; read-out: EC50,0.3 to 0.8 µM
same,EC50,[3]; read-out: pEC50 (converted),0.794 µM
same,EC50,[4],0.316 µM
same,EC50,[5],0.631 µM
same,EC50,[6],0.398 µM
same,EC50,[7],0.398 µM
same,EC50,[8],12.6 µM
same,Ki,[1],0.021 µM
same,EC50,[9],0.794 µM
same,Ki,[2],0.012 µM
CC(C)NC[C@@H](O)COc1ccc(O)c(O)c1,Ki,[1],0.42 µM
same,Ki,[2],0.86 µM
CC(C)NC[C@H](O)COc1ccc(O)c(O)c1,EC50,[3]; read-out: pEC50 (converted),0.631 µM
same,EC50,[4],0.631 µM
same,EC50,[5],0.251 µM
same,EC50,[6],1 µM
same,EC50,[7],0.316 µM
same,EC50,[8],0.794 µM
same,Ki,[1],0.012 µM
same,EC50,[9],0.316 µM
same,Ki,[2],0.014 µM
COc1ccccc1OCCNC[C@@H](O)COc1ccc(O)c(O)c1,Ki,[1],7.9 µM
same,Ki,[2],7.4 µM
OCc1cc(C(O)CNCCCCCCOCCCCc2ccccc2)ccc1O (racemic) [SALMETEROL],Ki,[2],0.55 µM
COc1cc(CCNC[C@@H](O)COc2ccc(O)c(O)c2)ccc1OCCCc1ccccc1,Ki,[1],0.12 µM
same,Ki,[2],0.31 µM
COc1cc(CCNC[C@H](O)COc2ccc(O)c(O)c2)ccc1OCCCc1ccccc1,EC50,[3]; read-out: pEC50 (converted),2.51 µM
same,EC50,[4],10 µM
same,EC50,[5],2 µM
same,EC50,[6],2.51 µM
same,EC50,[7],7.94 µM
same,EC50,[8],12.6 µM
same,Ki,[1],0.0072 µM
same,Ki,[2],0.0065 µM
COc1ccccc1OCCNC[C@@H](O)c1cccc2[nH]c3ccccc3c12,Ki,[1],0.17 µM
same,Ki,[2],0.34 µM
COc1ccccc1OCCNC[C@H](O)Cc1ccc(O)c(O)c1,Ki,[1],5.2 µM
same,Ki,[2],> 10 µM
COc1ccccc1OCCNCCCOc1ccc(O)c(O)c1,Ki,[1],3.8 µM
same,Ki,[2],> 10 µM
COc1ccccc1OCCNC[C@H](O)c1ccc(O)c(O)c1,EC50,[3]; read-out: pEC50 (converted),0.0398 µM
same,EC50,[4],0.0794 µM
same,EC50,[5],0.1 µM
same,EC50,[6],0.0631 µM
same,EC50,[7],0.0513 µM
same,EC50,[8],0.0631 µM
same,EC50,[9],0.158 µM
same,EC50,[10],0.269 µM
COc1cc(CCNC[C@H](O)c2ccc(O)c(O)c2)ccc1OCCCc1ccccc1,EC50,[3]; read-out: pEC50 (converted),2 µM
same,EC50,[4],0.794 µM
same,EC50,[5],0.417 µM
same,EC50,[6],0.794 µM
same,EC50,[7],0.501 µM
same,EC50,[8],0.1 µM
same,EC50,[9],0.501 µM
same,EC50,[10],0.724 µM
COc1ccccc1OCCNCCCOc1cccc2[nH]c3ccccc3c12,Ki,[1],0.0054 µM
same,Ki,[2],0.024 µM
